In PubChem BioAssay (NCI):
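A five-concentration, 48-hour dose response in 96-well plates underlies each endpoint, interpolated linearly between surrounding concentrations. GI50 marks 50% less growth. Definition used: TGI = concentration required for complete inhibition of growth.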

Columns and labels:
Assay in all cases: inhibition of tumour cell growth, NCI panel, 48 h
HOP-92 NSCLC = test system: HOP-92 NSCLC
NCI/ADR-RES ovarian = test system: NCI/ADR-RES ovarian
SW-620 colon = test system: SW-620 colon
SF-539 CNS = test system: SF-539 CNS
SK-OV-3 ovarian = test system: SK-OV-3 ovarian
NCI-H23 lung = test system: NCI-H23 lung
SNB-75 CNS = test system: SNB-75 CNS
SF-295 CNS = test system: SF-295 CNS
MALME-3M melanoma = test system: MALME-3M melanoma
SN12C renal = test system: SN12C renal

Row | SMILES | GI50 (HOP-92 NSCLC) [µM] | GI50 (NCI/ADR-RES ovarian) [nM] | TGI (NCI/ADR-RES ovarian) [µM] | GI50 (SW-620 colon) [µM] | TGI (SW-620 colon) [µM] | GI50 (SF-539 CNS) [µM] | TGI (SF-539 CNS) [µM] | GI50 (SK-OV-3 ovarian) [µM] | TGI (SK-OV-3 ovarian) [µM] | GI50 (NCI-H23 lung) [µM] | TGI (NCI-H23 lung) [µM] | GI50 (SNB-75 CNS) [µM] | TGI (SNB-75 CNS) [µM] | GI50 (SF-295 CNS) [nM] | TGI (SF-295 CNS) [µM] | GI50 (MALME-3M melanoma) [µM] | TGI (MALME-3M melanoma) [µM] | GI50 (SN12C renal) [µM] | TGI (SN12C renal) [µM] | TGI (HOP-92 NSCLC) [µM]
1 | Oc1c(-c2nnc(-c3ccccc3Cl)o2)sc2nnc(-c3ccccc3)c(-c3ccccc3)c12 | 1.81 | 1090 | > 100 | 4.07 | 25.3 | 4.45 | 70.4 | 5.14 | > 100 | 4.87 | > 100 | 6.94 | > 100 | 1890 | 15.6 | 4.22 | 33.1 | 4.29 | 90.5 | –
2 | Cc1c[n+](=O)c2ccccc2n1[O-] | – | – | > 100 | – | > 100 | – | > 100 | – | > 100 | – | > 100 | – | > 100 | – | > 100 | – | > 100 | – | > 100 | > 100
3 | C=C(C)[C@@H]1CC[C@]2(C)CC[C@]3(C)[C@H](CC[C@@H]4[C@@]5(C)CC[C@H](O)C(C)(C)[C@@H]5CC[C@]43C)[C@@H]12 | – | – | > 100 | – | > 72.3 | – | > 100 | – | – | – | > 100 | – | > 80.1 | – | > 82.7 | – | > 100 | – | > 100 | > 100
4 | C=C1C(=O)O[C@H]2[C@H]1CC/C(CNC(=O)/C=C/c1cc(OC)c(OC)c(OC)c1)=C\CC[C@@]1(C)O[C@@H]21 | 0.257 | 24400 | > 100 | 0.615 | 2.49 | 2 | 5.93 | 17.2 | 33.3 | 1.58 | 3.58 | 2.93 | 22.9 | 4610 | 18.2 | 1.34 | 3.44 | 3.46 | 14.3 | 5.44
5 | CC1(C)C2CCC13C(=O)C1OC3(C2)C2C(=O)c3cc4ccccc4cc3C(=O)C12 (configuration not stated) | 4.19 | 2710 | 15.9 | – | – | 40.1 | 72 | 12.2 | 67.4 | 4.75 | 32.6 | 54.5 | > 100 | – | – | 7.3 | 43.8 | 19.3 | > 100 | 27.5
6 | CCOC(=O)c1c(C)nc2c(c1N)CC(=O)N2Cc1ccc(OC)cc1 | 2.29 | 4960 | > 100 | > 100 | > 100 | 7.03 | > 100 | – | – | 4.26 | > 100 | 3.4 | 25.8 | 2530 | 7.37 | > 100 | > 100 | > 100 | > 100 | 6.5
7 | N#Cc1ccc(OCc2nc(N)nc(N)c2-c2ccc(Cl)c(Cl)c2)cc1 | 4.6 | 1550 | > 100 | 0.484 | > 100 | 0.802 | 37.5 | 4.72 | > 100 | – | – | 2.74 | 29.1 | 725 | > 100 | 23.5 | 84.8 | 2.79 | > 100 | > 100
8 | C=C(CN1C(=O)CN(C)C1=O)c1ccc(C(=O)Nc2ccccc2N)cc1 | 26.5 | 12500 | > 100 | 19.4 | > 100 | 36.2 | > 100 | 1.64 | 9.96 | 26.8 | > 100 | 5.87 | 57.6 | 19500 | > 100 | – | – | 14.1 | 92.4 | > 100
9 | COc1ccc(-c2cc3c(c4cc(OC)ccc24)C(=O)OC3=O)cc1 | – | – | > 100 | – | > 100 | – | – | – | > 100 | – | > 100 | – | > 100 | – | > 100 | – | > 100 | – | > 100 | > 100
10 | Cc1cccc(/C=C/c2c(C(=O)/C=C/c3ccccc3)c(C)nc3ccccc23)c1 | 1.48 | 1850 | 4.65 | 1.34 | 2.98 | 1.71 | 3.12 | – | – | 1.58 | 3.57 | 1.42 | 2.95 | 1890 | 3.73 | 1.79 | 3.2 | 1.68 | 3.5 | 4
11 | COc1cc(/C=C\c2cc(OC)c(OC)c(OC)c2)cc(NC(=O)/C=C/c2cc(OC)c(OC)c(OC)c2)c1OC | 4.68 | 2770 | > 100 | 5.89 | > 100 | 7.58 | > 100 | 6.62 | > 100 | 5.27 | > 100 | 1.82 | > 100 | – | – | 3.34 | > 100 | 27.6 | > 100 | > 100
12 | CNC(=O)Nc1nc2ccc([N+](=O)[O-])cc2[nH]1 | – | – | > 100 | – | > 100 | – | > 100 | – | > 100 | – | > 100 | – | – | – | > 100 | – | > 100 | – | > 100 | > 100
